Reference: the supplement of paper PMC10307832

Experiments:
Experiment in all cases: relative viability (nuclei count vs DMSO), 5 days (fraction); higher = more cells survive
[1] = compound: CCN1C(=O)C2=CC(=C(N=C2N(C1=O)C3CC3)N)C(=O)N + Nc1nc2[nH]cc(CCc3ccc(C(=O)N[C@@H](CCC(=O)O)C(=O)O)cc3)c2c(=O)[nH]1 [Pemetrexed] (partner 0.2 µM)
Procedure, shortened: (§1)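 Relative viability equals treated-well nuclei counts divided by vehicle-well nuclei counts. Counts came from 4× images of lung cancer cell lines grown in 1536-well plates for 5 days after pin-tool dosing on the day after seeding. Dosing used one drug alone or a fixed anchor-drug dose plus five library-drug doses (not always all listed) in √10 steps, and values are medians of duplicate plates.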

[2] = compound: CCN1C(=O)C2=CC(=C(N=C2N(C1=O)C3CC3)N)C(=O)N + C[C@]1(O)C[C@@H](c2nc(-c3ccc4ccc(-c5ccccc5)nc4c3)c3c(N)nccn32)C1 [Linsitinib] (partner 1 µM)
Procedure, shortened: as §1

[3] = compound: CCN1C(=O)C2=CC(=C(N=C2N(C1=O)C3CC3)N)C(=O)N + CC(C)C[C@H](NC(=O)[C@H](Cc1ccccc1)NC(=O)c1cnccn1)B(O)O [Bortezomib] (partner 0.002 µM)
Procedure, shortened: as §1

[4] = compound: CCN1C(=O)C2=CC(=C(N=C2N(C1=O)C3CC3)N)C(=O)N + N=C(N)NC(=N)NCCc1ccccc1 [Phenformin] (partner 250 µM)
Procedure, shortened: as §1

[5] = compound: CCN1C(=O)C2=CC(=C(N=C2N(C1=O)C3CC3)N)C(=O)N + Cc1cc(Nc2cc(N3CCN(C)CC3)nc(Sc3ccc(NC(=O)C4CC4)cc3)n2)n[nH]1 [Tozasertib] (partner 0.1 µM)
Procedure, shortened: as §1

Cell Line	relative viability ([1]; first compound 0.253 µM)	relative viability ([1]; first compound 0.8 µM)	relative viability ([1]; first compound 2.53 µM)	relative viability ([1]; first compound 8 µM)	relative viability ([2]; first compound 0.253 µM)	relative viability ([2]; first compound 0.8 µM)	relative viability ([2]; first compound 2.53 µM)	relative viability ([2]; first compound 8 µM)	relative viability ([3]; first compound 0.253 µM)	relative viability ([3]; first compound 0.8 µM)	relative viability ([3]; first compound 2.53 µM)	relative viability ([3]; first compound 8 µM)	relative viability ([4]; first compound 0.253 µM)	relative viability ([4]; first compound 0.8 µM)	relative viability ([4]; first compound 2.53 µM)	relative viability ([4]; first compound 8 µM)	relative viability ([5]; first compound 0.253 µM)	relative viability ([5]; first compound 0.8 µM)	relative viability ([5]; first compound 2.53 µM)	relative viability ([5]; first compound 8 µM)
HARA	0.223	0.232	0.246	0.216	0.971	0.942	0.829	0.94	1.18	1.12	1.11	1.15	0.433	0.478	0.414	0.401	0.12	0.129	0.0936	0.111
H3255	0.588	0.555	0.536	0.558	0.879	0.908	0.835	1.03	0.866	0.565	0.934	0.706	0.427	0.306	0.315	0.359	0.606	0.682	0.533	1.3
NCI-H441	0.272	0.246	0.263	0.26	0.49	0.545	0.697	0.53	0.464	0.421	0.456	0.775	0.762	0.85	0.78	0.833	0.619	0.571	0.54	0.458
CAL-12T	1.02	1.31	1.06	1.15	0.792	0.773	0.721	0.776	1.11		1.09	1.08	0.565	0.61	0.49	0.547	0.271	0.269	0.282	0.223
NCI-H1437	0.294	0.316	0.287	0.304	0.929	1.04	1.01	1.11	0.489	0.543	0.515	0.618	0.269	0.363	0.334	0.276	0.378	0.42	0.374	0.411
HOP-62	0.278	0.353	0.303	0.345	0.989	1.09	0.825	1.05	0.914	0.75	0.754	0.733	0.678	0.696	0.633	0.77	0.367	0.353	0.382	0.371
EPLC-272H		0.265	0.301	0.368	1.18	1.28	1.37	1.36	0.828	0.75	0.827	1	0.322	0.32	0.357	0.32	0.289	0.227	0.229	0.224
COR-L 105	0.941	1.01	0.991	1.16	1.12	1.04	0.945	0.939	0.866	0.709	0.856	0.738	0.452	0.391	0.498	0.379	0.346	0.355	0.403	0.327
HCC-366	0.167	0.17	0.155	0.163	0.726	0.65	0.623	0.6	1.03	1	1	0.997		0.595	0.589	0.589		0.0821	0.0697	0.0668
HCC-44	0.588	0.641	0.613	0.668	0.693	0.634	0.69	0.641	0.896	0.895	0.879	0.877	0.296	0.18	0.277	0.185	0.634	0.965	0.789	0.875
NCI-H2009	1.1	1.09	1	0.966	1.24	1.15	1.11	1.1	0.963	1.09	0.965	0.94	0.481	0.485	0.453	0.453	0.732	0.751	0.697	0.809
NCI-H23	0.785	0.734	0.677	0.634	0.602	0.61	0.56	0.565	1.02	1.03	1.08	0.956	0.789	0.768	0.749	0.675	0.415	0.352	0.352	0.335
NCI-H838	0.239	0.274	0.242	0.248	1.06	0.895	0.974	0.99	0.857	0.887	0.891	0.912	0.607	0.589	0.551	0.545	0.258	0.203	0.28	0.234
NCI-H1355	1.03	1	1.03	0.96	0.846	0.891	0.808	0.687	1.22	1.3	1.22	1.25	0.463	0.473	0.451	0.436	0.587	0.616	0.509	0.515
NCI-H2023	0.198	0.182	0.222	0.247	0.68	0.621	0.548	0.652	0.829	0.915	0.95	0.984	0.411	0.42	0.357	0.388	0.402	0.32	0.241	0.233
NCI-H2087	0.676	0.629	0.677	0.608	1.02	0.963	0.971	1.04	0.837	0.845	0.781	0.985	0.439	0.466	0.443	0.398	0.258	0.249	0.214	0.266

Cell Line	relative viability ([1]; first compound 0.253 µM)	relative viability ([1]; first compound 0.8 µM)	relative viability ([1]; first compound 2.53 µM)	relative viability ([1]; first compound 8 µM)	relative viability ([2]; first compound 0.253 µM)	relative viability ([2]; first compound 0.8 µM)	relative viability ([2]; first compound 2.53 µM)	relative viability ([2]; first compound 8 µM)	relative viability ([3]; first compound 0.253 µM)	relative viability ([3]; first compound 0.8 µM)	relative viability ([3]; first compound 2.53 µM)	relative viability ([3]; first compound 8 µM)	relative viability ([4]; first compound 0.253 µM)	relative viability ([4]; first compound 0.8 µM)	relative viability ([4]; first compound 2.53 µM)	relative viability ([4]; first compound 8 µM)	relative viability ([5]; first compound 0.253 µM)	relative viability ([5]; first compound 0.8 µM)	relative viability ([5]; first compound 2.53 µM)	relative viability ([5]; first compound 8 µM)
PC-14	0.133	0.14	0.141	0.149	0.96	0.973	0.948	0.929	0.966	0.932	0.807	0.919	0.507	0.487	0.75	0.603	0.597	0.604	0.525	0.64
LC-2-ad	0.288	0.298	0.273	0.278	0.811	0.805	0.782	0.899	0.922	0.965	1.02	1.07	0.521	0.556	0.505	0.587	0.399	0.507	0.484	0.452
HCC-78	0.866	0.949	0.813	0.842	0.516	0.434	0.482	0.675	0.293	0.479	0.463	0.516	0.747		0.75	0.685	0.422		0.289	0.453
LOU-NH91	0.369	0.377	0.383	0.379	1.04	0.951	0.96	0.879	0.565	0.502	0.516	0.496	0.466	0.645	0.822	0.694	0.603	0.649	0.635	0.683
NCI-H1734	0.432	0.392	0.405	0.423	0.837	0.849	0.852	0.884	0.953	0.999	0.918	1	0.381	0.365	0.384	0.361	0.373	0.278	0.233	0.25
NCI-H520	0.635	0.64	0.703	0.657	0.938	0.951	0.961	1.11	0.574	0.574	0.743	0.612	0.582	0.643	0.59	0.508	0.426	0.397	0.382	0.451
SK-LU-1	0.933	1.06	1	1.04	1.02	1.14	1.23	1.06		1.36	1.29	1.29	0.538	0.587	0.614	0.561	0.349	0.305	0.324	0.306
NCI-H647	0.174	0.205	0.157	0.185	1.11	0.995	1.08	1.09	0.92	1.05	0.951	0.784	0.418	0.519	0.428	0.637	0.33	0.304	0.273	0.277
NCI-H1755	0.525	0.412	0.418	0.471	1.02	0.997	1.01	0.942	0.949	0.966	0.921	0.948	0.647	0.607	0.381	0.665	0.567	0.515	0.514	0.528
UMC-11	0.867	0.846	0.761	0.845	0.981	1.01	1.13	1.15	0.714	0.649	0.674	0.836	0.322	0.319	0.304	0.293	0.2	0.213	0.188	0.206
NCI-H650	0.962	0.782	0.954	0.978	0.949	0.636	0.957	0.697	1.03	0.701	0.935	0.701	0.502	0.388	0.448	0.433	0.704	0.759	0.67	0.702
NCI-H596	0.465	0.507	0.573	0.497	0.991	1.11	0.926	1.18		0.807	1.11	1.01	0.707	0.72	0.769	0.628	0.968	0.944	0.69	1.1
HCC-15	0.231	0.221	0.2	0.235	0.867	0.908	0.879	0.913	0.992	1.11	0.979	1	0.456	0.472	0.473	0.44	0.46	0.389	0.385	0.502
NCI-H2126	0.682	0.671	0.674	0.674	0.741	0.745	0.656	0.718	1.14	1.14	1.16	1.05	0.553	0.512	0.522	0.506	0.86	0.798	0.801	0.828
NCI-H2085	0.914	0.847	0.987	0.851	0.969	0.754	0.799	0.863	0.971	1.1	1.04	0.996	0.737	0.666	0.752	0.684	0.85	0.726	0.867	0.613
BEN	0.896	0.842	0.929	0.699	0.961	0.92	0.919	0.954	0.951	0.68	1.1	0.697	0.251	0.273	0.264	0.284	0.629	0.528	0.443	0.525
